Reference: ChEMBL document CHEMBL6103588, “Promising thiazolidinedione-thiazole based multi-target and neuroprotective hybrids for Alzheimer's disease: Design, synthesis, in-vitro, in-vivo and in-silico studies” (Eur J Med Chem, 2025)

What was measured:
Acetylcholinesterase [1] = target: Acetylcholinesterase (Electrophorus electricus, UniProt O42275); assay: Inhibition of Electric eel AChE using acetylthiocholine iodide as substrate pre-incubated for 10 mins followed by substrate addition and measured after 15 mins by DTNB reagent based Ellman's method
[2] = target: T1, Amine oxidase [flavin-containing] A (Homo sapiens, UniProt P21397); assay: Inhibition of human MAO-A using tyramine/benzylamine as substrate measured after 30 mins by fluorometric assay
T1 sequence (P21397 whole entry): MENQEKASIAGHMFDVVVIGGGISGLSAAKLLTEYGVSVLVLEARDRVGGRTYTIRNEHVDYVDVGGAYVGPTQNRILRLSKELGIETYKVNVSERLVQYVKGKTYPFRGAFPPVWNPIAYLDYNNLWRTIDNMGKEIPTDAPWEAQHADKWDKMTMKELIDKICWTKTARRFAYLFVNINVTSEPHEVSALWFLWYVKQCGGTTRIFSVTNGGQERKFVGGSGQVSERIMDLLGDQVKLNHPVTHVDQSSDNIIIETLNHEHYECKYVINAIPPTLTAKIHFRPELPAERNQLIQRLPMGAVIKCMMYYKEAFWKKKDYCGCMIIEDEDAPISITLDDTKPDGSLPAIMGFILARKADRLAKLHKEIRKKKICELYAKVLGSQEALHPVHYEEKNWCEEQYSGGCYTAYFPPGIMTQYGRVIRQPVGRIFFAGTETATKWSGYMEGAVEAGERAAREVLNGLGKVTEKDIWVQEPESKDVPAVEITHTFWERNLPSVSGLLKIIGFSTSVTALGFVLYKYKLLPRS

[3] = target: Prostaglandin G/H synthase 1 (Homo sapiens, UniProt P23219)
[4] = target: T2, Prostaglandin G/H synthase 2 (Homo sapiens, UniProt P35354); assay: Inhibition of human COX2 by EIA method
T2 sequence (P35354 whole entry): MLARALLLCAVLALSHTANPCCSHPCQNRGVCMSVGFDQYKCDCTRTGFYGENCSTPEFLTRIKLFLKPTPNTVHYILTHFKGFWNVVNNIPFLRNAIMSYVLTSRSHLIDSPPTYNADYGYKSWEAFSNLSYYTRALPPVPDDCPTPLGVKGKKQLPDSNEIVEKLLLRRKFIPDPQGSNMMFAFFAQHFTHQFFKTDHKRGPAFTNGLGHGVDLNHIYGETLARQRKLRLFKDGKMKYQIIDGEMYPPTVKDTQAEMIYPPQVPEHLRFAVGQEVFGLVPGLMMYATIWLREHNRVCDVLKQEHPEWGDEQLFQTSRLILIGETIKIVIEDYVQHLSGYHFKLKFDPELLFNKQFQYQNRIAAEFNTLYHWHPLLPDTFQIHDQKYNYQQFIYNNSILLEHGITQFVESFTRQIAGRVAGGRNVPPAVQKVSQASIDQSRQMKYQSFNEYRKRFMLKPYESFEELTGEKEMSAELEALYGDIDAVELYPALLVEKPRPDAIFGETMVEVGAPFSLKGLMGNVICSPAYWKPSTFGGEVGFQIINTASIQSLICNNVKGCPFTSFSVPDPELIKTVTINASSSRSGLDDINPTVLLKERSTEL

Beta-secretase 1 = Beta-secretase 1 (Homo sapiens, UniProt P56817); assay: Inhibition of BACE-1 (unknown origin) 667-676- (2, 4-dinitrophenyl) Lys-Arg-Arg amide trifluoroacetate as substrate preincubated for 15 mins followed by substrate addition and measured after 2 hrs by fluorescence spectrometric analysis
Cholinesterase [5] = target: Cholinesterase (Equus caballus, UniProt P81908); assay: Inhibition of equine serum BuChE using butyrylthiocholine iodide as substrate pre-incubated for 10 mins followed by substrate addition and measured after 15 mins by DTNB reagent based Ellman's method
in vitro = conditions: PAMPA, pH 7.4
Description: Permeability of compound in PBS at pH 7.4 incubated for 20 hrs by PAMPA-BBB assay

[6] = Neurotoxicity against human SH-SY5Y cells assessed as reduction in cell viability upto 50 uM incubated for 24 hrs by MTT assay; type: toxicity, cell-based
[7] = Lipophilicity, logP of compound; type: physicochemical; conditions: octanol/water
Acetylcholinesterase [8] = target: Acetylcholinesterase (Homo sapiens, UniProt P22303); assay: Inhibition of AChE (unknown origin) using acetylthiocholine iodide as substrate pre-incubated for 30 mins followed by substrate addition and measured after 30 mins by DTNB reagent based Ellman's method
[9] = target: T3, Amine oxidase [flavin-containing] B (Homo sapiens, UniProt P27338); assay: Inhibition of MAO-B (unknown origin)
T3 sequence (P27338 whole entry): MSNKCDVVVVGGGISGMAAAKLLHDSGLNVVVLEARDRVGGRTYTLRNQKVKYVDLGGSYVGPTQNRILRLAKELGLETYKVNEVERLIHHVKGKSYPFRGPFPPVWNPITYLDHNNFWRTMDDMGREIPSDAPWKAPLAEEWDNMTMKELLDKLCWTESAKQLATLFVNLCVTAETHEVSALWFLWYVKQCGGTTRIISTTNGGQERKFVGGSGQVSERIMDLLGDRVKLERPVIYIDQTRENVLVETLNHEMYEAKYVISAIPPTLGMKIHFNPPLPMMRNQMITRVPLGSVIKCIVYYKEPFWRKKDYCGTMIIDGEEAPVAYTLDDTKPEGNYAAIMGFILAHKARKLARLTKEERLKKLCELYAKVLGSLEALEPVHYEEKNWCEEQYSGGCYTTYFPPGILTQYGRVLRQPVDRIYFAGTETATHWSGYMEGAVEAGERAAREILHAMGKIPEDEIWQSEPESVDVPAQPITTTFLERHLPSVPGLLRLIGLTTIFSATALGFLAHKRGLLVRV

[10] = target: T3, Amine oxidase [flavin-containing] B; conditions: read-out: INH
Description: Inhibition of MAO-B (unknown origin) at 100 uM relative to control

Cholinesterase [11] = target: Cholinesterase (Homo sapiens, UniProt P06276); assay: Inhibition of BChE (unknown origin)
[12] = target: T4, Polyunsaturated fatty acid 5-lipoxygenase (Homo sapiens, UniProt P09917); assay: Inhibition of 5-LOX (unknown origin) using linoleic acid as substrate incubated for 5 mins followed by substrate addition
T4 sequence (P09917 whole entry): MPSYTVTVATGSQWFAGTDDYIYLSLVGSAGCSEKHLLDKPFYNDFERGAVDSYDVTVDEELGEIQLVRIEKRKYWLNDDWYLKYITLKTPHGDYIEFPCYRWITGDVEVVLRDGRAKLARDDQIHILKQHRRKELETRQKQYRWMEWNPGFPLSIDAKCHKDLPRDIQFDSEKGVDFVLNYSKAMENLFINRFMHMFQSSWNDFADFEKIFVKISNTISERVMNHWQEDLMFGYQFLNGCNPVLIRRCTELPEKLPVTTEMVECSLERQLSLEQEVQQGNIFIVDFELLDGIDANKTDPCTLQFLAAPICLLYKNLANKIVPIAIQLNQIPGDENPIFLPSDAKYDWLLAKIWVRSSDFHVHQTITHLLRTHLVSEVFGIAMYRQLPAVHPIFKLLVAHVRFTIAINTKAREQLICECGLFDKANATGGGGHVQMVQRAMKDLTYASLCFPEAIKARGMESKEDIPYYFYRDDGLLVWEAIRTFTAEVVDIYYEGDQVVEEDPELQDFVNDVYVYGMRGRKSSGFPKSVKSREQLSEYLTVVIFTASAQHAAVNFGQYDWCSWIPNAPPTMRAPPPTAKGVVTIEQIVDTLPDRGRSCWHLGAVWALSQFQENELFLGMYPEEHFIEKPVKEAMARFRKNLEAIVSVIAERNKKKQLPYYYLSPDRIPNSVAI

[13] = target: T3, Amine oxidase [flavin-containing] B; assay: Inhibition of human MAO-B using tyramine/benzylamine as substrate measured after 30 mins by fluorometric assay
[14] = target: T2, Prostaglandin G/H synthase 2
Description: Inhibition of COX-2 (unknown origin) using arachidonic acid as substrate and in presence of TMPD preincubated for 5 mins followed by substrate addition and measured after 5 mins by UV visible spectrophotometric analysis

Prostaglandin G/H synthase 1, sequence (P23219 whole entry): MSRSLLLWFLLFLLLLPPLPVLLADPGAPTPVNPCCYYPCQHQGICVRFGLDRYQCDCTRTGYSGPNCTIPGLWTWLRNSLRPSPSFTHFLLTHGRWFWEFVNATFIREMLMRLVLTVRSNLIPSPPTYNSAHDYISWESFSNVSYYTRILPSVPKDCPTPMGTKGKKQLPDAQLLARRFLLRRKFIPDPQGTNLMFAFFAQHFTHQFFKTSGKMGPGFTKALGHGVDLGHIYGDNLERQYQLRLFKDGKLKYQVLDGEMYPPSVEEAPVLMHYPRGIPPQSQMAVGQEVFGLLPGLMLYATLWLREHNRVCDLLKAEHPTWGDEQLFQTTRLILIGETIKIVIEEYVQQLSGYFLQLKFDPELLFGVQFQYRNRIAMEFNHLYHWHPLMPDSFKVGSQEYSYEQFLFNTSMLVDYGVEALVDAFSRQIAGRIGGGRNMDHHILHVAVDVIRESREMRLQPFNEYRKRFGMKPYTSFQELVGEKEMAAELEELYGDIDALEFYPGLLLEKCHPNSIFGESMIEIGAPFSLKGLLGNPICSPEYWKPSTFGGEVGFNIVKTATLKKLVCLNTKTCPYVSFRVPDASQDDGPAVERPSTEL
Cholinesterase (Equus caballus, UniProt P81908), sequence (P81908 whole entry): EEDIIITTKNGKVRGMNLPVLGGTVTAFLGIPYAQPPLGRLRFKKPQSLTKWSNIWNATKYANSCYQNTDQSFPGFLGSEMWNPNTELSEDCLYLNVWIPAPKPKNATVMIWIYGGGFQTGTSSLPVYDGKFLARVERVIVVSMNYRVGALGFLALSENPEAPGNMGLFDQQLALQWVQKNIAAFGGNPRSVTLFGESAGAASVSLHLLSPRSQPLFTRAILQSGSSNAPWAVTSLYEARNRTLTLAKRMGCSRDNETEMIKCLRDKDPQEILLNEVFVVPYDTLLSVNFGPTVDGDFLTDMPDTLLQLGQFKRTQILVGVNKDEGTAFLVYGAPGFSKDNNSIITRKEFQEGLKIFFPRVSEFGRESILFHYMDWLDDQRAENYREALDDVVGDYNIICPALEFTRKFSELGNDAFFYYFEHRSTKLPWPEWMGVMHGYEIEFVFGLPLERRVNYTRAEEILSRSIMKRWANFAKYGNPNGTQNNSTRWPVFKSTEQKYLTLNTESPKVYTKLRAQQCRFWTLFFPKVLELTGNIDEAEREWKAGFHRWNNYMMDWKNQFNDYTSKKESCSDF
Beta-secretase 1, sequence (P56817 whole entry): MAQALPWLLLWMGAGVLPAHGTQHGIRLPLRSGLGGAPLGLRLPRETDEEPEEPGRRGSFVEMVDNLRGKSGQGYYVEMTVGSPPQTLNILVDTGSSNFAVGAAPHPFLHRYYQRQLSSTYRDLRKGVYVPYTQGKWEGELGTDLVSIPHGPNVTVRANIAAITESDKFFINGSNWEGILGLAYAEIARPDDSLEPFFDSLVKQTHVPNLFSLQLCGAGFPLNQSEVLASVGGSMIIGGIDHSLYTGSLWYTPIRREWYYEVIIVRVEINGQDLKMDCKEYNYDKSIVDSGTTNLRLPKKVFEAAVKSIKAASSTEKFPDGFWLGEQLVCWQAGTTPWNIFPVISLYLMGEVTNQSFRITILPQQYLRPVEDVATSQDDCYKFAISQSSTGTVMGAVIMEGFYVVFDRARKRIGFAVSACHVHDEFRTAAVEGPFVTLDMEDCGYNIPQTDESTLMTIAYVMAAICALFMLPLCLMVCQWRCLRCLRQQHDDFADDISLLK
Acetylcholinesterase (Electrophorus electricus, UniProt O42275), sequence (O42275 whole entry): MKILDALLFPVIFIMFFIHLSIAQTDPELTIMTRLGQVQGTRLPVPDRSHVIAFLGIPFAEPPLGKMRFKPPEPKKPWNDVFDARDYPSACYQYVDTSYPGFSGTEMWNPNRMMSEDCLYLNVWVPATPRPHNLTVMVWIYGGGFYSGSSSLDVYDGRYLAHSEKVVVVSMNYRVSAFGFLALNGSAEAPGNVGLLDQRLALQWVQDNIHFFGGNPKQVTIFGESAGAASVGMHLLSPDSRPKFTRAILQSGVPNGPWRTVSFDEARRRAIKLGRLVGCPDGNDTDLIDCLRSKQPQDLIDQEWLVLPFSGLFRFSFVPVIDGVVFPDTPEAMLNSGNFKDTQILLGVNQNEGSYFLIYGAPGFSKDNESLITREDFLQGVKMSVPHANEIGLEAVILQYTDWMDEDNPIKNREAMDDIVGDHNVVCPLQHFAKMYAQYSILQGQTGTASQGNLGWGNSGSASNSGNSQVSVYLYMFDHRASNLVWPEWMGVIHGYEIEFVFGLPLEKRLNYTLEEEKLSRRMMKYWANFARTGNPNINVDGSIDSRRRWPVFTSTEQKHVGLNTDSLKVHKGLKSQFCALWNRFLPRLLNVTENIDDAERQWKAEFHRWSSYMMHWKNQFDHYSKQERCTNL
Cholinesterase (Homo sapiens, UniProt P06276), sequence (P06276 whole entry): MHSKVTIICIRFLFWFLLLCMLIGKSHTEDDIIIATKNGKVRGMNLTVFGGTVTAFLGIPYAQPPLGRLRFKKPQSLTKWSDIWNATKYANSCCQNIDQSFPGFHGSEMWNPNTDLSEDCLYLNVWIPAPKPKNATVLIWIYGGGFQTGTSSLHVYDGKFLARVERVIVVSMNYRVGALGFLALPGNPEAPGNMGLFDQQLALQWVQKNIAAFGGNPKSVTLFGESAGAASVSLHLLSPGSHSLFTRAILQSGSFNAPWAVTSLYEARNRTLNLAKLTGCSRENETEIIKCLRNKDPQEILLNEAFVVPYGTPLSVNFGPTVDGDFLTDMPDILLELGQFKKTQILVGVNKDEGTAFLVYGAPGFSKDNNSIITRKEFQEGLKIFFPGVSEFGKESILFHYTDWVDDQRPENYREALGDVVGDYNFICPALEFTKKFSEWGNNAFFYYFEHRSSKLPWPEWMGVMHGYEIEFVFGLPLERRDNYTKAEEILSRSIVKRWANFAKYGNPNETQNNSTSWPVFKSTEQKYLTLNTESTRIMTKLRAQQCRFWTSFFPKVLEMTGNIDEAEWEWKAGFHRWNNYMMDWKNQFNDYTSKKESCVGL
Acetylcholinesterase (Homo sapiens, UniProt P22303), sequence (P22303 whole entry): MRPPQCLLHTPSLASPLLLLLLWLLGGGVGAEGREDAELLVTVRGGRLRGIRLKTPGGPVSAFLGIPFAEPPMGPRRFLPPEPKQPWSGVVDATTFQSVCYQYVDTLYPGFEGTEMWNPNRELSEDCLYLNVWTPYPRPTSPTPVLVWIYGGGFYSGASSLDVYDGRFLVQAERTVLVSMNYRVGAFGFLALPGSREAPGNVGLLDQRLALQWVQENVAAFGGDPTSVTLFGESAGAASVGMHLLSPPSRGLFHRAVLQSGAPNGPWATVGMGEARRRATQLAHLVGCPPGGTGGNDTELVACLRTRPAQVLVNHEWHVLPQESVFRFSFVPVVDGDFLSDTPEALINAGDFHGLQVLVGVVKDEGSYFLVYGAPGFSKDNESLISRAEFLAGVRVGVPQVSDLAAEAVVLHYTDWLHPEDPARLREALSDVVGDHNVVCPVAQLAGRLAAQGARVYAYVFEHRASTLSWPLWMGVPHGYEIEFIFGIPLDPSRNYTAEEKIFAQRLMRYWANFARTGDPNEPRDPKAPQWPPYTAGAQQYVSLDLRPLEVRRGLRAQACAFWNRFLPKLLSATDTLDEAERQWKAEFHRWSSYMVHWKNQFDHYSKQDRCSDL

## O=C(CN1C(=O)S/C(=C\c2ccc(O)cc2)C1=O)Nc1nc2ccccc2s1
Acetylcholinesterase [1]; read-out: IC50
  IC50: 2.76 µM
[2]
  IC50: Not_active

## O=C1S/C(=C\c2ccc(O)cc2)C(=O)N1CNc1nc2ccccc2s1
Acetylcholinesterase [1]; read-out: IC50
  IC50: 5.98 µM

## O=C(CN1C(=O)S/C(=C\c2ccc(O)cc2)C1=O)Nc1nccs1
Acetylcholinesterase [1]; read-out: IC50
  IC50: 9.03 µM
[3]; read-out: IC50
  IC50: 51.8 µM

## CS(=O)(=O)c1ccc(-n2cc(/C=C3/SC(=O)NC3=O)c(-c3ccccc3)n2)cc1
[4]
  IC50: 0.48 µM

## O=C1S/C(=C\c2c[nH]c3ccccc23)C(=O)N1c1csc(Nc2ccccc2)n1
Acetylcholinesterase [1]; read-out: IC50
  IC50: 0.69 µM
Beta-secretase 1; read-out: IC50
  IC50: 19.2 µM
Cholinesterase [5]
  IC50: 17.4 µM
[3]; read-out: IC50
  IC50: 33.4 µM

## O=C1S/C(=C\c2ccc(-c3ccccc3)cc2)C(=O)N1CNc1nc(-c2ccccc2)cs1
Acetylcholinesterase [1]; read-out: IC50
  IC50: 0.063 µM
In vitro
  Papp at 20 h: 14.2 ×10⁻⁶ cm/s
Beta-secretase 1
  IC50: Not_active
[6]
  Activity: Non-toxic
[7]
  logP: 6.78

## O=C(/C=C/c1ccc(-c2ccccc2)cc1)Nc1nc2ccc(O)cc2s1
Acetylcholinesterase [8]
  IC50: 0.071 µM
[9]
  IC50: 0.037 µM

## O=C(CN1C(=O)S/C(=C\c2c[nH]c3ccccc23)C1=O)Nc1nc2ccccc2s1
Acetylcholinesterase [1]; read-out: IC50
  IC50: 0.45 µM
Beta-secretase 1; read-out: IC50
  IC50: 0.91 µM
[3]; read-out: IC50
  IC50: 42.5 µM

## Cc1nnc2n1-c1ccc(Cl)cc1C(c1ccccc1)=NC2 [ALPRAZOLAM]
In vitro
  Papp at 20 h: 5.59 ×10⁻⁶ cm/s

## O=C1S/C(=C\c2ccccc2)C(=O)N1CNc1nc(-c2cc(Cl)cs2)c(Nc2ccccc2)s1
Acetylcholinesterase [1]
  IC50: Not_active
Beta-secretase 1; read-out: IC50
  IC50: 0.49 µM
Cholinesterase [5]
  IC50: 0.23 µM
[3]
  IC50: Not_active

## C/C=C1\SC(=O)N(CNc2nc(-c3cc(Cl)cs3)c(Nc3ccc(S(N)(=O)=O)cc3)s2)C1=O
Acetylcholinesterase [1]
  IC50: Not_active
In vitro
  Papp at 20 h: 9.1 ×10⁻⁶ cm/s
Beta-secretase 1; read-out: IC50
  IC50: 0.51 µM
Cholinesterase [5]
  IC50: 0.11 µM
[6]
  Activity: Non-toxic
[7]
  logP: 4.86
[3]
  IC50: Not_active

## O=C(CN1C(=O)S/C(=C\c2c[nH]c3ccccc23)C1=O)Nc1nccs1
Acetylcholinesterase [1]; read-out: IC50
  IC50: 0.16 µM
Beta-secretase 1; read-out: IC50
  IC50: 1.18 µM

## O=C(CCN1CCCC1)Nc1nc2ccc(Br)cc2s1
[10]
  inhibition at 100 µM: 66%
Cholinesterase [11]
  IC50: 12 µM

## O=C1S/C(=C\c2ccccc2)C(=O)N1c1csc(Nc2ccccc2)n1
Acetylcholinesterase [1]; read-out: IC50
  IC50: 0.29 µM
Beta-secretase 1; read-out: IC50
  IC50: 10.2 µM
Cholinesterase [5]
  IC50: 7.18 µM
[3]; read-out: IC50
  IC50: 29.3 µM

## COc1ccc(C2CC(c3ccc(O)cc3)=NN2c2nc3ccc(C)cc3s2)cc1OC (stereo not given)
Acetylcholinesterase [8]
  IC50: 8.69 µM

## Cc1ccc2sc(NC(=O)CCN3CCCC3)nc2c1
[10]
  inhibition at 100 µM: 60%
Cholinesterase [11]
  IC50: 15 µM

## O=C1S/C(=C\c2c[nH]c3ccccc23)C(=O)N1CNc1nc(-c2ccccc2)cs1
Acetylcholinesterase [1]; read-out: IC50
  IC50: 0.052 µM
In vitro
  Papp at 20 h: 10.7 ×10⁻⁶ cm/s
Beta-secretase 1; read-out: IC50
  IC50: 0.76 µM
[6]
  Activity: Non-toxic
[7]
  logP: 4.65

## CCn1cc(C(=O)O)c(=O)c2cc(F)c(N3CCNC(C)C3)c(F)c21 (stereo not given) [LOMEFLOXACIN]
In vitro
  Papp at 20 h: 1.13 ×10⁻⁶ cm/s

## O=C(/C=C/c1ccccc1)Nc1ccc2sc(NCN3C(=O)CSC3=O)nc2c1
[12]
  IC50: 0.21 µM
Acetylcholinesterase [1]; read-out: IC50
  IC50: 9.07 µM
[2]; read-out: IC50
  IC50: 65.4 µM
[13]
  IC50: 14.7 µM
Beta-secretase 1
  IC50: Not_active
[14]
  IC50: 0.107 µM
